# Assay results published in PubChem BioAssay AID2060886 (Molecular Pharmacology Branch, DTP, NCI, 2025).
# Tested on: 653999-131-R-J2-PDC complex spheroids, growth inhibition
# Test: Anticancer human tumor 653999-131-R-J2-PDC patient-derived lung adenocarcinoma cell line growth inhibition [RAS]
# Settings: for IC50: curve of first compound; for viability, T/C: stronger effect = lower value
# In short: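 Agents were tested in combination matrices in half-log decrements from a top concentration at or near clinical Cmax (10 microM if undetermined). Targets were multi-cell spheroids of tumour lines plus HUVEC and MSC stromal cells.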
# [1] = second compound 0.000949 µM, first compound 0.0316 µM
# [2] = second compound 0.000949 µM, first compound 0.1 µM
# [3] = second compound 0.003 µM, first compound 0.0316 µM
# [4] = second compound 0.003 µM, first compound 0.1 µM
# [5] = second compound 0.00949 µM, first compound 0.0316 µM
# [6] = second compound 0.00949 µM, first compound 0.1 µM
# [7] = second compound 0.03 µM, first compound 0.0316 µM
# [8] = second compound 0.03 µM, first compound 0.1 µM
# [9] = second compound 0.0949 µM, first compound 0.0316 µM
# [10] = second compound 0.0949 µM, first compound 0.1 µM
# [11] = second compound 0.3 µM, first compound 0.0316 µM
# [12] = second compound 0.3 µM, first compound 0.1 µM
# 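Further: spheroids exposed to the agents for seven days before the readout.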
smiles,measurement,setting,value
Cc1nc(N2CCC3(CC2)COC(C)C3N)c(CO)nc1Sc1ccnc(N)c1Cl (stereo unspecified) + CCn1c(-c2cccnc2C(C)OC)c2c3cc(ccc31)N1CCOC(CC(NC(=O)C(C(C)C)N(C)C(=O)C3(F)CCN(C(=O)C#CC(C)(C)N(C)C)CC3)C(=O)N3CCCC(N3)C(=O)OCC(C)(C)C2)C1,IC50,second compound 0.000949 µM,> 10000 nM
same,IC50,second compound 0.003 µM,> 10000 nM
same,IC50,second compound 0.00949 µM,> 10000 nM
same,IC50,second compound 0.03 µM,> 10000 nM
same,IC50,second compound 0.0949 µM,> 10000 nM
same,IC50,second compound 0.3 µM,> 10000 nM
same,"viability, T/C",[1],85.9%
same,"viability, T/C",[2],87.6%
same,"viability, T/C","second compound 0.000949 µM, first compound 0.316 µM",81.8%
same,"viability, T/C","second compound 0.000949 µM, first compound 1 µM",67.6%
same,"viability, T/C","second compound 0.000949 µM, first compound 3.16 µM",81.7%
same,"viability, T/C","second compound 0.000949 µM, first compound 10 µM",78.9%
same,"viability, T/C",[3],103%
same,"viability, T/C",[4],98.2%
same,"viability, T/C","second compound 0.003 µM, first compound 0.316 µM",83.5%
same,"viability, T/C","second compound 0.003 µM, first compound 1 µM",70.4%
same,"viability, T/C","second compound 0.003 µM, first compound 3.16 µM",78.6%
same,"viability, T/C","second compound 0.003 µM, first compound 10 µM",80.3%
same,"viability, T/C",[5],96%
same,"viability, T/C",[6],71%
same,"viability, T/C","second compound 0.00949 µM, first compound 0.316 µM",84.8%
same,"viability, T/C","second compound 0.00949 µM, first compound 1 µM",87%
same,"viability, T/C","second compound 0.00949 µM, first compound 3.16 µM",75.2%
same,"viability, T/C","second compound 0.00949 µM, first compound 10 µM",81.2%
same,"viability, T/C",[7],89.6%
same,"viability, T/C",[8],76.8%
same,"viability, T/C","second compound 0.03 µM, first compound 0.316 µM",83.6%
same,"viability, T/C","second compound 0.03 µM, first compound 1 µM",75.8%
same,"viability, T/C","second compound 0.03 µM, first compound 3.16 µM",83.2%
same,"viability, T/C","second compound 0.03 µM, first compound 10 µM",76.8%
same,"viability, T/C",[9],92%
same,"viability, T/C",[10],82.2%
same,"viability, T/C","second compound 0.0949 µM, first compound 0.316 µM",93.6%
same,"viability, T/C","second compound 0.0949 µM, first compound 1 µM",86.5%
same,"viability, T/C","second compound 0.0949 µM, first compound 3.16 µM",94.4%
same,"viability, T/C","second compound 0.0949 µM, first compound 10 µM",77.4%
same,"viability, T/C",[11],84.1%
same,"viability, T/C",[12],88.3%
same,"viability, T/C","second compound 0.3 µM, first compound 0.316 µM",72.4%
same,"viability, T/C","second compound 0.3 µM, first compound 1 µM",89.7%
same,"viability, T/C","second compound 0.3 µM, first compound 3.16 µM",80.3%
same,"viability, T/C","second compound 0.3 µM, first compound 10 µM",81.7%
CC(C)n1nc(-c2ccc3oc(N)nc3c2)c2c(N)ncnc21 + CCn1c(-c2cccnc2C(C)OC)c2c3cc(ccc31)N1CCOC(CC(NC(=O)C(C(C)C)N(C)C(=O)C3(F)CCN(C(=O)C#CC(C)(C)N(C)C)CC3)C(=O)N3CCCC(N3)C(=O)OCC(C)(C)C2)C1,IC50,second compound 0.000949 µM,21.8 nM
same,IC50,second compound 0.003 µM,20.1 nM
same,IC50,second compound 0.00949 µM,20.1 nM
same,IC50,second compound 0.03 µM,22.1 nM
same,IC50,second compound 0.0949 µM,24.6 nM
same,IC50,second compound 0.3 µM,17.7 nM
same,"viability, T/C","second compound 0.000949 µM, first compound 0.000316 µM",85.9%
same,"viability, T/C","second compound 0.000949 µM, first compound 0.001 µM",95.4%
same,"viability, T/C","second compound 0.000949 µM, first compound 0.00316 µM",82.9%
same,"viability, T/C","second compound 0.000949 µM, first compound 0.01 µM",66%
same,"viability, T/C",[1],42.9%
same,"viability, T/C",[2],28.4%
same,"viability, T/C","second compound 0.003 µM, first compound 0.000316 µM",95.8%
same,"viability, T/C","second compound 0.003 µM, first compound 0.001 µM",104%
same,"viability, T/C","second compound 0.003 µM, first compound 0.00316 µM",87.3%
same,"viability, T/C","second compound 0.003 µM, first compound 0.01 µM",62.7%
same,"viability, T/C",[3],42.9%
same,"viability, T/C",[4],34%
same,"viability, T/C","second compound 0.00949 µM, first compound 0.000316 µM",107%
same,"viability, T/C","second compound 0.00949 µM, first compound 0.001 µM",98.8%
same,"viability, T/C","second compound 0.00949 µM, first compound 0.00316 µM",94.5%
same,"viability, T/C","second compound 0.00949 µM, first compound 0.01 µM",63.9%
same,"viability, T/C",[5],41.1%
same,"viability, T/C",[6],32.9%
same,"viability, T/C","second compound 0.03 µM, first compound 0.000316 µM",100%
same,"viability, T/C","second compound 0.03 µM, first compound 0.001 µM",93.8%
same,"viability, T/C","second compound 0.03 µM, first compound 0.00316 µM",76.9%
same,"viability, T/C","second compound 0.03 µM, first compound 0.01 µM",59.3%
same,"viability, T/C",[7],47.4%
same,"viability, T/C",[8],29.1%
same,"viability, T/C","second compound 0.0949 µM, first compound 0.000316 µM",97.7%
same,"viability, T/C","second compound 0.0949 µM, first compound 0.001 µM",95.8%
same,"viability, T/C","second compound 0.0949 µM, first compound 0.00316 µM",79.4%
same,"viability, T/C","second compound 0.0949 µM, first compound 0.01 µM",68.1%
same,"viability, T/C",[9],44%
same,"viability, T/C",[10],31.8%
same,"viability, T/C","second compound 0.3 µM, first compound 0.000316 µM",92.4%
same,"viability, T/C","second compound 0.3 µM, first compound 0.001 µM",93.8%
same,"viability, T/C","second compound 0.3 µM, first compound 0.00316 µM",81.7%
same,"viability, T/C","second compound 0.3 µM, first compound 0.01 µM",54.6%
same,"viability, T/C",[11],45.4%
same,"viability, T/C",[12],44.9%
CC1(C)CCC(Nc2ncc(C(F)(F)F)c(-c3c[nH]c4c(P(C)(C)=O)c(C#N)ccc34)n2)CN1 (stereo unspecified) + C=CC(=O)N1CCN(c2nc(OCC3CCCN3C)nc3c(F)c(-c4nc(N)cc(C)c4C(F)(F)F)c(Cl)cc23)C(C)C1,IC50,second compound 0.00316 µM,> 300 nM
same,IC50,second compound 0.01 µM,> 300 nM
same,IC50,second compound 0.0316 µM,> 300 nM
same,IC50,second compound 0.1 µM,> 300 nM
same,IC50,second compound 0.316 µM,> 300 nM
same,IC50,second compound 1 µM,> 300 nM
same,"viability, T/C","second compound 0.00316 µM, first compound 0.000949 µM",84%
same,"viability, T/C","second compound 0.00316 µM, first compound 0.003 µM",70.5%
same,"viability, T/C","second compound 0.00316 µM, first compound 0.00949 µM",73.5%
same,"viability, T/C","second compound 0.00316 µM, first compound 0.03 µM",60.1%
same,"viability, T/C","second compound 0.00316 µM, first compound 0.0949 µM",70%
same,"viability, T/C","second compound 0.00316 µM, first compound 0.3 µM",71.4%
same,"viability, T/C","second compound 0.01 µM, first compound 0.000949 µM",88.8%
same,"viability, T/C","second compound 0.01 µM, first compound 0.003 µM",74%
same,"viability, T/C","second compound 0.01 µM, first compound 0.00949 µM",70.1%
same,"viability, T/C","second compound 0.01 µM, first compound 0.03 µM",60.9%
same,"viability, T/C","second compound 0.01 µM, first compound 0.0949 µM",68%
same,"viability, T/C","second compound 0.01 µM, first compound 0.3 µM",64.6%
same,"viability, T/C","second compound 0.0316 µM, first compound 0.000949 µM",89.8%
same,"viability, T/C","second compound 0.0316 µM, first compound 0.003 µM",66.1%
same,"viability, T/C","second compound 0.0316 µM, first compound 0.00949 µM",59.9%
same,"viability, T/C","second compound 0.0316 µM, first compound 0.03 µM",64.2%
same,"viability, T/C","second compound 0.0316 µM, first compound 0.0949 µM",65.2%
same,"viability, T/C","second compound 0.0316 µM, first compound 0.3 µM",64.5%
same,"viability, T/C","second compound 0.1 µM, first compound 0.000949 µM",77.5%
same,"viability, T/C","second compound 0.1 µM, first compound 0.003 µM",68.7%
same,"viability, T/C","second compound 0.1 µM, first compound 0.00949 µM",61%
same,"viability, T/C","second compound 0.1 µM, first compound 0.03 µM",58.5%
same,"viability, T/C","second compound 0.1 µM, first compound 0.0949 µM",60.1%
same,"viability, T/C","second compound 0.1 µM, first compound 0.3 µM",69.8%
same,"viability, T/C","second compound 0.316 µM, first compound 0.000949 µM",101%
same,"viability, T/C","second compound 0.316 µM, first compound 0.003 µM",72.3%
same,"viability, T/C","second compound 0.316 µM, first compound 0.00949 µM",69.8%
same,"viability, T/C","second compound 0.316 µM, first compound 0.03 µM",77.1%
same,"viability, T/C","second compound 0.316 µM, first compound 0.0949 µM",77.5%
same,"viability, T/C","second compound 0.316 µM, first compound 0.3 µM",69.5%
same,"viability, T/C","second compound 1 µM, first compound 0.000949 µM",78.9%
same,"viability, T/C","second compound 1 µM, first compound 0.003 µM",69.9%
same,"viability, T/C","second compound 1 µM, first compound 0.00949 µM",74%
same,"viability, T/C","second compound 1 µM, first compound 0.03 µM",64%
same,"viability, T/C","second compound 1 µM, first compound 0.0949 µM",65.9%
same,"viability, T/C","second compound 1 µM, first compound 0.3 µM",63.7%
